Common to all, as to type: functional, cell-based
Experiment [1] deals with A549. Briefly: Cytotoxicity evaluated against A549 tumor cell lines; significant activity. The settings on record: Homo sapiens.
The subject of experiment [2] is B16. Briefly: Cytotoxicity was evaluated against B16 tumor cell lines; Significant activity. The settings on record: Mus musculus.
Experiment [3] concerns CCRF-CEM. Briefly: Cytotoxicity evaluated against CEM tumor cell lines; Significant activity. The following applies: Homo sapiens.
The subject of experiment [4] is NCI-H596. The experiment is described as follows: Cytotoxicity evaluated against H596 tumor cell lines; Significant activity. The following applies: Homo sapiens.
Experiment [5] deals with NCI-H292. The experiment is described as follows: Cytotoxicity evaluated against H292 tumor cell lines; Significant activity. The following applies: Homo sapiens.
Experiment [6] has as its system HL-60. Briefly: Cytotoxicity evaluated against HL-60 tumor cell lines; Significant activity. The following applies: Homo sapiens.
Experiment [7] concerns Jurkat. Briefly: In vitro test for antitumor activity against human Jurkat cell line using a formazan dye (MTT) conversion assay.
Experiment [8] concerns K562. Briefly: Cytotoxicity evaluated against K562 tumor cell lines; Significant activity. The following applies: Homo sapiens.
In experiment [9] the test system is L1210. Briefly: Cytotoxicity evaluated against L1210 tumor cell lines; Significant activity. The settings on record: Mus musculus.
Experiment [10] concerns MCF7. The experiment is described as follows: Cytotoxicity evaluated against MCF-7 tumor cell lines; Significant activity. The following applies: Homo sapiens.
The subject of experiment [11] is MOLT-4. Briefly: Cytotoxicity was evaluated against Molt-4 tumor cell lines. The settings on record: Homo sapiens.
Experiment [12] relates to NIH3T3. The experiment is described as follows: Cytotoxicity evaluated against NIH3T3 tumor cell lines; Significant activity. The settings on record: Mus musculus.
Experiment [13] deals with WI-38. Briefly: Cytotoxicity evaluated against WI38 tumor cell lines; Significant activity. The settings on record: Homo sapiens.
Experiment [14] deals with WIL2. Briefly: Cytotoxicity evaluated against WIL2 tumor cell lines; Significant activity. The following applies: Homo sapiens.

As a reminder, the IC50 is the concentration needed to halve the response being measured. Lower therefore signals greater potency.

Consider `COc1cc2c(cc1OC)C(=O)/C(=C/c1cc([N+](=O)[O-])cc([N+](=O)[O-])c1)CC2`, for which the Cytotoxicity result in experiment [1], in experiment [2], in experiment [3], in [4], in experiment [5] and in experiment [6] was “Significant activity” throughout. Further, the Cytotoxicity entry in [8], in experiment [9], in experiment [10], in experiment [11], in experiment [12] and in [13] was “Significant activity” each time. Also, in experiment [14], the Cytotoxicity entry was “Significant activity”. In [7], inhibition was half-maximal at 2 µM (IC50).
As for `COc1cc2c(cc1OC)C(=O)/C(=C/c1cc(C)c(O)c(C)c1)CC2`, the Cytotoxicity entry in [1], in [2], in experiment [3], in experiment [4], in [5] and in experiment [6] was “Significant activity” throughout. Further, the Cytotoxicity entry in experiment [8], in experiment [9], in [10], in [11], in [12] and in [13] was “Significant activity” in each case. Further, in [14], the Cytotoxicity result is “Significant activity”. The same molecule showed an IC50 in experiment [7] of 4.8 µM.
Turning to `COc1cc2c(cc1OC)C(=O)/C(=C/c1cc(C)c(N)c(C)c1)C2`, the Cytotoxicity result in experiment [1], in experiment [2], in [3], in [4], in [5] and in experiment [6] was “Significant activity” each time. Moreover, the Cytotoxicity entry in experiment [8], in [9], in experiment [10], in [11], in [12] and in [13] was “Significant activity” throughout. Moreover, the Cytotoxicity result in experiment [14] was “Significant activity”. Also, the IC50 in experiment [7] came to 0.055 µM.
As to `COc1cc2c(cc1OC)C(=O)/C(=C/c1cc(F)cc(F)c1)C2`, the Cytotoxicity result in experiment [1], in experiment [2], in experiment [3], in experiment [4], in [5] and in experiment [6] was “Significant activity” throughout. The Cytotoxicity result in experiment [8], in experiment [9], in [10], in experiment [11], in experiment [12] and in [13] was “Significant activity” throughout. In addition, in [14], the Cytotoxicity entry is “Significant activity”. The molecule also came in with an IC50 in experiment [7] of 19 µM.
With `COc1cc2c(c(N)c1OC)C(=O)/C(=C/c1cc(C)c(N)c(C)c1)C2`, the Cytotoxicity result in experiment [1], in experiment [2], in experiment [3], in experiment [4], in experiment [5] and in [6] was “Significant activity” throughout. Further, the Cytotoxicity entry in experiment [8], in experiment [9], in experiment [10], in experiment [11], in experiment [12] and in experiment [13] was “Significant activity” throughout. In experiment [14], the Cytotoxicity result is “Significant activity”. Besides, in experiment [7], the IC50 stood at 0.0235 µM.
With `COc1cc2c(c(OC)c1OC)C(=O)/C(=C/c1cc(C)c(O)c(C)c1)C2`, the Cytotoxicity entry in experiment [1], in [2], in experiment [3], in [4], in experiment [5] and in experiment [6] was “Significant activity” throughout. Moreover, the Cytotoxicity result in experiment [8], in [9], in experiment [10], in [11], in experiment [12] and in experiment [13] was “Significant activity” each time. Besides, the Cytotoxicity result in experiment [14] is “Significant activity”. This molecule also yielded an IC50 in experiment [7] of 0.125 µM.
For `COc1cc2c(cc1OC)C(=O)/C(=C/c1ccc(O)c(C)c1)C2`, the Cytotoxicity result in experiment [1], in [2], in experiment [3], in experiment [4], in experiment [5] and in experiment [6] was “Significant activity” each time. The Cytotoxicity entry in [8], in experiment [9], in [10], in [11], in [12] and in experiment [13] was “Significant activity” in each case. For the same molecule, the Cytotoxicity result in experiment [14] was “Significant activity”. For the same molecule, in [7], the IC50 turned out to be 1.16 µM.
With `COc1cc2c(cc1OC)C(=O)/C(=C/c1cc(C)ccc1C)CC2`, the Cytotoxicity entry in experiment [1], in [2], in experiment [3], in [4], in experiment [5] and in [6] was “Significant activity” each time. Moreover, the Cytotoxicity entry in experiment [8], in [9], in experiment [10], in [11], in experiment [12] and in experiment [13] was “Significant activity” throughout. Moreover, in experiment [14], the Cytotoxicity result was “Significant activity”. Also, the 50% inhibitory concentration (IC50) in [7] came to 6 µM.
Take `COc1cc2c(cc1OC)C(=O)/C(=C/c1ccc(O)cc1)CC2`: the Cytotoxicity entry in [1], in experiment [2], in [3], in experiment [4], in experiment [5] and in experiment [6] was “Significant activity” each time. In addition, the Cytotoxicity result in [8], in [9], in experiment [10], in experiment [11], in experiment [12] and in experiment [13] was “Significant activity” each time. For the same molecule, the Cytotoxicity entry in [14] was “Significant activity”. In experiment [7], this molecule yielded an IC50 of 19 µM.
Regarding `COc1cc2c(cc1OC)C(=O)/C(=C/c1cccc(C)c1)CC2`, the Cytotoxicity entry in [1], in experiment [2], in experiment [3], in experiment [4], in experiment [5] and in experiment [6] was “Significant activity” throughout. The Cytotoxicity result in experiment [8], in [9], in experiment [10], in [11], in experiment [12] and in experiment [13] was “Significant activity” throughout. In [14], the Cytotoxicity entry is “Significant activity”. This molecule showed an IC50 in experiment [7] of 17 µM.
For the molecule `COc1ccc(OC)c(/C=C2\CCc3cc(OC)c(OC)cc3C2=O)c1`, the Cytotoxicity result in [1], in [2], in [3], in [4], in [5] and in experiment [6] was “Significant activity” throughout. The Cytotoxicity entry in [8], in experiment [9], in experiment [10], in [11], in experiment [12] and in [13] was “Significant activity” each time. Also, in experiment [14], the Cytotoxicity result was “Significant activity”. Also, half-maximal inhibition in experiment [7] (IC50) was put at 11 µM.

For the origin of these results see ChEMBL document CHEMBL1133412, “Rational design, synthesis and structure-activity relationships of antitumor (E)-2-benzylidene-1-tetralones and (E)-2-benzylidene-1-indanones” (Bioorg Med Chem Lett, 2000).
